Laboratory results taken from ChEMBL document CHEMBL3885861, “Open TG-GATES”.

Species: Rattus norvegicus
Assay: Open TG-GATES - Regimen: Daily Repeat
Assay type: toxicity, organism-based, Sprague-Dawley
Design: regimen Daily Repeat, gender Male, age 6 weeks
Conditions: in vivo, po, 60 mg/kg, route gavage, dose level Low; for APTT / Bas / Eos / Fbg / Hb / Ht / Lym / MCH / MCHC / MCV / Mono / Neu / PT / Plat / RBC / Ret / WBC: tissue Blood; for KIDNEY_L / KIDNEY_R / KIDNEY_TOTAL: tissue Kidney; for LIVER: tissue Liver; for A/G / ALP / ALT / AST / BUN / CRE / Ca / Cl / DBIL / GLC / IP / K / LDH / Na / PL / RALB / TBIL / TC / TG / TP / gamma-GTP: tissue Plasma

CCOC(=O)[C@H](CCc1ccccc1)N[C@@H](C)C(=O)N1CCC[C@H]1C(=O)O
TERMINAL_BW (72 h, time 3 day): 243.2 g
APTT (72 h, time 3 day): 16.2 s
Bas (72 h, time 3 day): 0%
Eos (72 h, time 3 day): 0.8%
Fbg (72 h, time 3 day): 233.6 mg/dL
Hb (72 h, time 3 day): 13.1 g/dL
Ht (72 h, time 3 day): 39.8%
Lym (72 h, time 3 day): 82.6%
MCH (72 h, time 3 day): 21.3 pg
MCHC (72 h, time 3 day): 32.9%
MCV (72 h, time 3 day): 64.8 fL
Mono (72 h, time 3 day): 5.2%
Neu (72 h, time 3 day): 11.4%
PT (72 h, time 3 day): 11.6 s
Plat (72 h, time 3 day): 124.4 x10_4/uL
RBC (72 h, time 3 day): 614.6 x10_4/ul
Ret (72 h, time 3 day): 5.5%
WBC (72 h, time 3 day): 105.6 x10_2/uL
KIDNEY_L (72 h, time 3 day): 1.1 g
KIDNEY_R (72 h, time 3 day): 1.1 g
KIDNEY_TOTAL (72 h, time 3 day): 2.2 g
LIVER (72 h, time 3 day): 11.8 g
A/G (72 h, time 3 day): 2
ALP (72 h, time 3 day): 985.6 IU/L
ALT (72 h, time 3 day): 32.8 IU/L
AST (72 h, time 3 day): 63.2 IU/L
BUN (72 h, time 3 day): 20.2 mg/dL
CRE (72 h, time 3 day): 0.5 mg/dL
Ca (72 h, time 3 day): 10.9 mg/dL
Cl (72 h, time 3 day): 105.8 meq/L
DBIL (72 h, time 3 day): 0.028 mg/dL
GLC (72 h, time 3 day): 189.2 mg/dL
IP (72 h, time 3 day): 8 mg/dL
K (72 h, time 3 day): 5 meq/L
LDH (72 h, time 3 day): 90.6 IU/L
Na (72 h, time 3 day): 140.2 meq/L
PL (72 h, time 3 day): 160 mg/dL
RALB (72 h, time 3 day): 4 g/dL
TBIL (72 h, time 3 day): 0.3 mg/dL
TC (72 h, time 3 day): 81 mg/dL
TG (72 h, time 3 day): 93 mg/dL
TP (72 h, time 3 day): 6.1 g/dL
gamma-GTP (72 h, time 3 day): 2 IU/L
TERMINAL_BW ([…], time 7 day): 259.7 g
TERMINAL_BW ([…], time 14 day): 311.1 g
TERMINAL_BW ([…], time 28 day): 389.4 g
APTT ([…], time 7 day): 15.6 s
Bas ([…], time 7 day): 0%
Eos ([…], time 7 day): 0.6%
Fbg ([…], time 7 day): 232 mg/dL
Hb ([…], time 7 day): 13.5 g/dL
Ht ([…], time 7 day): 40.7%
Lym ([…], time 7 day): 84.6%
MCH ([…], time 7 day): 20.6 pg
MCHC ([…], time 7 day): 33.2%
MCV ([…], time 7 day): 61.9 fL
Mono ([…], time 7 day): 5%
Neu ([…], time 7 day): 9.2%
PT ([…], time 7 day): 11.6 s
Plat ([…], time 7 day): 124.1 x10_4/uL
RBC ([…], time 7 day): 658.4 x10_4/ul
Ret ([…], time 7 day): 4.8%
WBC ([…], time 7 day): 134.2 x10_2/uL
APTT ([…], time 14 day): 16.1 s
Bas ([…], time 14 day): 0%
Eos ([…], time 14 day): 1.2%
Fbg ([…], time 14 day): 247.4 mg/dL
Hb ([…], time 14 day): 14.3 g/dL
Ht ([…], time 14 day): 43%
Lym ([…], time 14 day): 76%
MCH ([…], time 14 day): 20.1 pg
MCHC ([…], time 14 day): 33.2%
MCV ([…], time 14 day): 60.7 fL
Mono ([…], time 14 day): 6.6%
Neu ([…], time 14 day): 16.2%
PT ([…], time 14 day): 11.3 s
Plat ([…], time 14 day): 118.7 x10_4/uL
RBC ([…], time 14 day): 710.6 x10_4/ul
Ret ([…], time 14 day): 3.5%
WBC ([…], time 14 day): 107.1 x10_2/uL
APTT ([…], time 28 day): 16.8 s
Bas ([…], time 28 day): 0%
Eos ([…], time 28 day): 1%
Fbg ([…], time 28 day): 252.6 mg/dL
Hb ([…], time 28 day): 15.1 g/dL
Ht ([…], time 28 day): 45.4%
Lym ([…], time 28 day): 85.6%
MCH ([…], time 28 day): 19.3 pg
MCHC ([…], time 28 day): 33.3%
MCV ([…], time 28 day): 58 fL
Mono ([…], time 28 day): 4.4%
Neu ([…], time 28 day): 8.8%
PT ([…], time 28 day): 11.6 s
Plat ([…], time 28 day): 108.6 x10_4/uL
RBC ([…], time 28 day): 782.8 x10_4/ul
Ret ([…], time 28 day): 3.5%
WBC ([…], time 28 day): 132.2 x10_2/uL
KIDNEY_L ([…], time 7 day): 1.1 g
KIDNEY_R ([…], time 7 day): 1.1 g
KIDNEY_TOTAL ([…], time 7 day): 2.3 g
KIDNEY_L ([…], time 14 day): 1.3 g
KIDNEY_R ([…], time 14 day): 1.3 g
KIDNEY_TOTAL ([…], time 14 day): 2.5 g
KIDNEY_L ([…], time 28 day): 1.5 g
KIDNEY_R ([…], time 28 day): 1.5 g
KIDNEY_TOTAL ([…], time 28 day): 3 g
LIVER ([…], time 7 day): 12.2 g
LIVER ([…], time 14 day): 13.6 g
LIVER ([…], time 28 day): 16.3 g
A/G ([…], time 7 day): 2.1
ALP ([…], time 7 day): 880.6 IU/L
ALT ([…], time 7 day): 32.6 IU/L
AST ([…], time 7 day): 61.8 IU/L
BUN ([…], time 7 day): 21.2 mg/dL
CRE ([…], time 7 day): 0.6 mg/dL
Ca ([…], time 7 day): 10.9 mg/dL
Cl ([…], time 7 day): 104 meq/L
DBIL ([…], time 7 day): 0.002 mg/dL
GLC ([…], time 7 day): 209.2 mg/dL
IP ([…], time 7 day): 8.6 mg/dL
K ([…], time 7 day): 5 meq/L
LDH ([…], time 7 day): 116.2 IU/L
Na ([…], time 7 day): 138 meq/L
PL ([…], time 7 day): 168.4 mg/dL
RALB ([…], time 7 day): 4 g/dL
TBIL ([…], time 7 day): 0.3 mg/dL
TC ([…], time 7 day): 88.8 mg/dL
TG ([…], time 7 day): 121.2 mg/dL
TP ([…], time 7 day): 5.9 g/dL
gamma-GTP ([…], time 7 day): 1 IU/L
A/G ([…], time 14 day): 1.8
ALP ([…], time 14 day): 821.6 IU/L
ALT ([…], time 14 day): 34.4 IU/L
AST ([…], time 14 day): 65.2 IU/L
BUN ([…], time 14 day): 24.4 mg/dL
CRE ([…], time 14 day): 0.6 mg/dL
Ca ([…], time 14 day): 10.8 mg/dL
Cl ([…], time 14 day): 106 meq/L
DBIL ([…], time 14 day): 0 mg/dL
GLC ([…], time 14 day): 199.2 mg/dL
IP ([…], time 14 day): 8.4 mg/dL
K ([…], time 14 day): 5 meq/L
LDH ([…], time 14 day): 105.2 IU/L
Na ([…], time 14 day): 138.4 meq/L
PL ([…], time 14 day): 155.4 mg/dL
RALB ([…], time 14 day): 4 g/dL
TBIL ([…], time 14 day): 0.3 mg/dL
TC ([…], time 14 day): 73.2 mg/dL
TG ([…], time 14 day): 113.2 mg/dL
TP ([…], time 14 day): 6.3 g/dL
gamma-GTP ([…], time 14 day): 1.4 IU/L
A/G ([…], time 28 day): 1.8
ALP ([…], time 28 day): 658.6 IU/L
ALT ([…], time 28 day): 31.6 IU/L
AST ([…], time 28 day): 61.4 IU/L
BUN ([…], time 28 day): 20.8 mg/dL
CRE ([…], time 28 day): 0.6 mg/dL
Ca ([…], time 28 day): 10.8 mg/dL
Cl ([…], time 28 day): 105.8 meq/L
DBIL ([…], time 28 day): 0.046 mg/dL
GLC ([…], time 28 day): 198.6 mg/dL
IP ([…], time 28 day): 7.3 mg/dL
K ([…], time 28 day): 4.8 meq/L
LDH ([…], time 28 day): 66.4 IU/L
Na ([…], time 28 day): 137.6 meq/L
PL ([…], time 28 day): 144.4 mg/dL
RALB ([…], time 28 day): 4.1 g/dL
TBIL ([…], time 28 day): 0.3 mg/dL
TC ([…], time 28 day): 69.2 mg/dL
TG ([…], time 28 day): 90.2 mg/dL
TP ([…], time 28 day): 6.4 g/dL
gamma-GTP ([…], time 28 day): 1.2 IU/L
